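Compound exposure: 48 hours, 5 concentrations, 96-well plates. GI50: concentration for 50% inhibition of growth. TGI: total growth inhibition.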 Some results are limits rather than exact numbers.

The first test has as its system SK-OV-3 ovarian. The experiment in a line: NCI tumour cell line growth inhibition, 48 h.
In turn, `CN(C)C(=O)OC(Cn1cncn1)c1ccc(Cl)cc1Cl` (stereo not given) gave a TGI of over 100 µM.

On to `CN(C)CCNc1c2c(c(NCCN(C)C)c3[nH]ccc13)C(=O)c1ccccc1C2=O`, for which the GI50 was 5.57 µM and the TGI came to 17.7 µM.

As for `CCOC(=O)COc1ccccc1/C=C1\CCC(CN(C)C)C1=O` (stereo not given), the TGI was determined as 31.4 µM.

`Cc1c(C(=O)C/C(=N\O)C(=O)Nc2cc(Cl)c(Cl)cc2Cl)[n+](=O)c2ccccc2n1[O-]` had a TGI of over 100 µM.

In turn, `CC1OC(O[C@@H]2OC=C(C=O)[C@@]3(O)CC[C@H](C)[C@@H]23)C(O)C(O)C1O` (stereo not given in full) had a TGI of over 100 µM.

`CCOC(=O)c1cc(NS(=O)(=O)c2ccccc2)cc(C(=O)OCC)c1`: the GI50 was over 100 µM and the TGI is over 100 µM.

Regarding `Cn1cccc1-c1cc(-c2cccs2)nc(N)c1C#N`, the GI50 was over 100 µM and the TGI is over 100 µM.

The compound `O=C(N/C(=C\c1ccc2c(c1)OCO2)c1nc2ccccc2[nH]1)c1ccccc1` yielded a TGI of over 100 µM.

Take `C=CCOc1cccc(/C=C2\SC(=Nc3ccc(O)cc3)NC2=O)c1`: the GI50 was 1.66 µM and the TGI is 15.7 µM.

With `Cc1[nH]ccc2c1[nH]c1cc(=O)ccc12`, the TGI is over 100 µM.

Regarding `NCCOCCOCCNc1nc(Cc2ccccc2)nc(NCCCN2CCCC2=O)n1`, the GI50 is over 100 µM and the TGI is over 100 µM.

Take `COc1ccc(-c2c3c(N)nc(-c4ccncc4)nc3nc3c2c(C)nn3-c2ccccc2)cc1`: the GI50 was 5.25 µM and the TGI came to 54 µM.

For `COc1cccc(-n2ncc3c(N/N=C/c4ccc(C(=O)NCCN(C)C)cc4)ncnc32)c1`, the GI50 is 1.53 µM and the TGI stood at 4.68 µM.

`COc1ccc(-c2nc3sc4c(c3c(=O)[nH]2)CCCCCC4)cc1`: the GI50 was 1.6 µM and the TGI is over 33.2 µM.

As for `CC1(C)CC(=O)c2c(C(F)(F)F)nn(-c3ccc(C(N)=O)c(NC4CCC(OC(=O)CN)CC4)c3)c2C1` (stereo not given), the GI50 was 0.0238 µM and the TGI was over 100 µM.

As to `O=C1CC(c2ccc(O)cc2)C2(O1)C(=O)OC(C(O)CO)C2O` (stereo not given), the TGI was over 100 µM.

As for `Cc1ccccc1[P+](Cc1ccccc1)(c1ccccc1)c1ccccc1`, the GI50 is 5.28 µM and the TGI was over 100 µM.

`O=C(NCCCCCCNC(=O)n1cc(F)c(=O)[nH]c1=O)NCCCOCCOCCOCCOCCOCCOCCOCCOCCOCCOCCOCCOCCOCCOCCOCCOCCOCCOCCOCCOCCOCCCNC(=O)C(O)C(O)C(O)C(O)CO` (stereo not given) returned a TGI of over 100 µM.

A further test has as its system A498 renal. The experiment in a line: NCI tumour cell line growth inhibition, 48 h.
In the case of `CN(C)C(=O)OC(Cn1cncn1)c1ccc(Cl)cc1Cl` (stereo not given), the TGI was over 100 µM.

`CN(C)CCNc1c2c(c(NCCN(C)C)c3[nH]ccc13)C(=O)c1ccccc1C2=O`: the GI50 is 11.3 µM and the TGI is 25.1 µM.

For the compound `CCOC(=O)COc1ccccc1/C=C1\CCC(CN(C)C)C1=O` (stereo not given), the TGI was determined as 31.3 µM.

Compound `Cc1c(C(=O)C/C(=N\O)C(=O)Nc2cc(Cl)c(Cl)cc2Cl)[n+](=O)c2ccccc2n1[O-]` yielded a TGI of 56.2 µM.

`CC1OC(O[C@@H]2OC=C(C=O)[C@@]3(O)CC[C@H](C)[C@@H]23)C(O)C(O)C1O` (stereo not given in full) gave a TGI of over 100 µM.

`CCOC(=O)c1cc(NS(=O)(=O)c2ccccc2)cc(C(=O)OCC)c1`: the GI50 is over 100 µM and the TGI is over 100 µM.

On to `Cn1cccc1-c1cc(-c2cccs2)nc(N)c1C#N`, for which the GI50 is over 100 µM and the TGI was over 100 µM.

The compound `O=C(N/C(=C\c1ccc2c(c1)OCO2)c1nc2ccccc2[nH]1)c1ccccc1` came in with a TGI of over 93.8 µM.

In the case of `C=CCOc1cccc(/C=C2\SC(=Nc3ccc(O)cc3)NC2=O)c1`, the GI50 was 0.79 µM and the TGI was found to be 3.77 µM.

As to `Cc1[nH]ccc2c1[nH]c1cc(=O)ccc12`, the TGI was over 100 µM.

Regarding `NCCOCCOCCNc1nc(Cc2ccccc2)nc(NCCCN2CCCC2=O)n1`, the GI50 is over 100 µM and the TGI was over 100 µM.

For `COc1ccc(-c2c3c(N)nc(-c4ccncc4)nc3nc3c2c(C)nn3-c2ccccc2)cc1`, the GI50 is 12.3 µM and the TGI was over 100 µM.

As for `COc1cccc(-n2ncc3c(N/N=C/c4ccc(C(=O)NCCN(C)C)cc4)ncnc32)c1`, the GI50 was over 13.6 µM and the TGI was over 25 µM.

As for `COc1ccc(-c2nc3sc4c(c3c(=O)[nH]2)CCCCCC4)cc1`, the GI50 is 0.897 µM and the TGI is over 33.2 µM.

In the case of `CC1(C)CC(=O)c2c(C(F)(F)F)nn(-c3ccc(C(N)=O)c(NC4CCC(OC(=O)CN)CC4)c3)c2C1` (stereo not given), the GI50 is 0.303 µM and the TGI is over 100 µM.

The compound `O=C1CC(c2ccc(O)cc2)C2(O1)C(=O)OC(C(O)CO)C2O` (stereo not given) came in with a TGI of over 100 µM.

Consider `Cc1ccccc1[P+](Cc1ccccc1)(c1ccccc1)c1ccccc1`, for which the GI50 is 1.46 µM and the TGI worked out at 7.2 µM.

`O=C(NCCCCCCNC(=O)n1cc(F)c(=O)[nH]c1=O)NCCCOCCOCCOCCOCCOCCOCCOCCOCCOCCOCCOCCOCCOCCOCCOCCOCCOCCOCCOCCOCCOCCCNC(=O)C(O)C(O)C(O)C(O)CO` (stereo not given) gave a TGI of over 42.1 µM.

Another test concerns OVCAR-5 ovarian. The experiment in a line: NCI tumour cell line growth inhibition, 48 h.
Take `CN(C)C(=O)OC(Cn1cncn1)c1ccc(Cl)cc1Cl` (stereo not given): the TGI was over 100 µM.

For `CN(C)CCNc1c2c(c(NCCN(C)C)c3[nH]ccc13)C(=O)c1ccccc1C2=O`, the GI50 was 2.1 µM and the TGI worked out at 13 µM.

For `CCOC(=O)COc1ccccc1/C=C1\CCC(CN(C)C)C1=O` (stereo not given), the TGI was found to be 32.4 µM.

The compound `Cc1c(C(=O)C/C(=N\O)C(=O)Nc2cc(Cl)c(Cl)cc2Cl)[n+](=O)c2ccccc2n1[O-]` had a TGI of 39.6 µM.

Consider `CC1OC(O[C@@H]2OC=C(C=O)[C@@]3(O)CC[C@H](C)[C@@H]23)C(O)C(O)C1O` (stereo not given in full), for which the TGI is over 100 µM.

Regarding `CCOC(=O)c1cc(NS(=O)(=O)c2ccccc2)cc(C(=O)OCC)c1`, the GI50 was over 100 µM and the TGI was over 100 µM.

Consider `Cn1cccc1-c1cc(-c2cccs2)nc(N)c1C#N`, for which the GI50 is over 100 µM and the TGI was over 100 µM.

`O=C(N/C(=C\c1ccc2c(c1)OCO2)c1nc2ccccc2[nH]1)c1ccccc1` showed a TGI of over 100 µM.

Regarding `C=CCOc1cccc(/C=C2\SC(=Nc3ccc(O)cc3)NC2=O)c1`, the GI50 is 2.32 µM and the TGI was found to be 24.9 µM.

The compound `Cc1[nH]ccc2c1[nH]c1cc(=O)ccc12` returned a TGI of over 100 µM.
